The target of this test is Beta-secretase 1 (Homo sapiens, UniProt P56817). The experiment in a line: D3R2027.
Excerpt: D3R2027

The IC50 is the concentration that gives 50% inhibition. Lower therefore signals higher potency.

Chain of Beta-secretase 1 (P56817 whole entry): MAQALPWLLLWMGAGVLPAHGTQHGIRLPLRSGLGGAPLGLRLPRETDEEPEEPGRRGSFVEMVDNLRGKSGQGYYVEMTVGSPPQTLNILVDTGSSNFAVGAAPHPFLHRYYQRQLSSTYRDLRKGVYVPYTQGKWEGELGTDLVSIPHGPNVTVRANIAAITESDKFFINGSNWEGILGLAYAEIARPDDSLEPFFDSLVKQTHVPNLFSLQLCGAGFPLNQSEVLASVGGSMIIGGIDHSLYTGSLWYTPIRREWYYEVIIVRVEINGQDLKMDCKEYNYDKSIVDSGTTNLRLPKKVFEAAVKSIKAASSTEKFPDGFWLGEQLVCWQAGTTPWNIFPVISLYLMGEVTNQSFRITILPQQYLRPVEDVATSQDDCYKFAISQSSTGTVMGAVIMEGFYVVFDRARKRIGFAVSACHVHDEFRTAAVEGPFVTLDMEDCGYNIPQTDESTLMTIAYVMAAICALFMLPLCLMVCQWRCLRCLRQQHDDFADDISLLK

Take `CC(C)c1cccc(CNC[C@@H](O)[C@@H]2C[C@H](C)CCCCCCCN(S(C)(=O)=O)c3cc(cc(N(C)S(C)(=O)=O)c3)C(=O)N2)c1` [BACE_69]: it took 1900 nM to reach half-maximal inhibition (IC50). This counts as single-digit micromolar.

Compound `CCCCNC(=O)[C@H](C)C[C@H](O)[C@H](Cc1ccccc1)NC(=O)c1cc(NCCCC)nc(OC)c1` [BACE_20] showed an IC50 of 770 nM.

For `COCc1cc2cc(c1)C(=O)N[C@H]([C@H](O)CN[C@H]1CC(C)(C)Oc3ccc(C(C)C)cc31)Cc1cccc(c1)OCCCCN2` [BACE_128], the IC50 was found to be 2.5 nM.

On to `CC(C)c1cccc(CNC[C@@H](O)[C@@H]2C[C@H](C)CCCCCCCCC(=O)N(C)CC(=O)N2)c1` [BACE_32], for which inhibition was half-maximal at 360 nM (IC50).

With `CCOc1ccc(C(F)(F)F)c(CNC[C@@H](O)[C@@H]2C[C@H](C)CCCCCCCCC(=O)N(C)[C@@H](C)C(=O)N2)c1` [BACE_24], the IC50 came out at 53 nM.

`COCc1cc2cc(c1)C(=O)N[C@H]([C@H](O)CN)Cc1cccc(c1)OCCCCN2` [BACE_126] yielded an IC50 of 13000 nM. This IC50 is about 250-fold higher than that of the compound before.

On to `COc1ccc2cc1OCCCCNc1cc(cc(Cl)n1)C(=O)N[C@H]([C@H](O)CNCc1cccc(C(C)C)c1)C2` [BACE_100], for which the IC50 came out at 39 nM. This IC50 lies about 330-fold lower than the previous one.

With `Cc1cc2cc(n1)NCCCCc1cccc(c1)C[C@@H]([C@H](O)CNCc1cc(C(C)(C)C)ccn1)NC2=O` [BACE_97], the IC50 was 3 nM. This IC50 lies about 13-fold lower than the previous one.

`C/C1=C\CCCCCCNc2cc(cc(C)n2)C(=O)N[C@H]([C@H](O)CNCc2cccc(C(C)C)c2)C1` [BACE_45] displayed an IC50 of 7.3 nM.

For `COc1cc2cc(n1)NCCCCCCC[C@@H](C)C[C@@H]([C@H](O)CNCc1cccc(C(C)C)c1)NC2=O` [BACE_43], the IC50 stood at 14 nM.

As for `CC(C)c1ccnc(CNC[C@@H](O)[C@@H]2Cc3cccc(c3)OCCCCOc3cccc(c3)C(=O)N2C)c1` [BACE_139], half-maximal inhibition (IC50) required 37000 nM.

For the compound `COc1cc2cc(c1)C1=N[C@@H](C[C@H](C)CCCCCCCN2)[C@H](CO)O1` [BACE_142], the IC50 was found to be 4500 nM.

`COCc1cc2cc(c1)C(=O)O[C@@H](CNC1(c3cccc(C(C)C)c3)CC1)[C@@H](N)Cc1cccc(c1)OCCCCN2` [BACE_144] showed an IC50 of 6400 nM. The IC50 values of the last two compounds are within 1.5-fold of each other.

`C[C@@H]1CC(=O)NCCCCOc2cccc(c2)C[C@@H]([C@H](O)CNCc2cccc(C(C)(C)C)c2)NC1=O` [BACE_92] came in with an IC50 of 69 nM. Compared with the last compound, the IC50 is about 93-fold lower.

The compound `CC(C)c1cccc(CNC[C@@H](O)[C@@H]2Cc3cccc(c3)OCCCCO[C@H]3CCN(CC(=O)N2)C3=O)c1` [BACE_89] showed an IC50 of 260 nM.

Turning to `CC(C)c1cccc(CNC[C@@H](O)[C@@H]2C[C@H](C)CCCCCCCOc3cc(cc(Cl)n3)C(=O)N2)c1` [BACE_51], the IC50 came to 29 nM. Compared with the last compound, the IC50 is about 9-fold lower.

Turning to `Cc1cc2cc(n1)NCCCCOCC[C@@H](C)C[C@@H]([C@H](O)CNC(C)(C)c1cc(CC(C)(C)C)on1)NC2=O` [BACE_48], the IC50 amounted to 83 nM.

`COCc1cc2cc(c1)C(=O)N[C@H]([C@H](O)CNCc1cccc(C(C)C)c1)C[C@H](C)CCOCCCCN2` [BACE_10]: it took 570 nM to reach half-maximal inhibition (IC50).

Compound `C[C@@H]1CC(=O)NCCCCOc2cccc(c2)C[C@@H]([C@H](O)CNC2(c3cccc(C(C)(C)C)c3)CCCCC2)NC1=O` [BACE_93] had an IC50 of 10 nM.

Turning to `CC(=O)COc1cc2cc(c1)C(=O)N[C@H]([C@H](O)CNC1(c3cc(C(C)(C)C)ccn3)CC1)Cc1cccc(c1)CCCCO2` [BACE_133], the IC50 is 2 nM.

In turn, `CCc1cc(CNC[C@@H](O)[C@@H]2Cc3cccc(c3)OCCCCOc3cc(cc(C(=O)N(C)C)c3)C(=O)N2)ncn1` [BACE_141] yielded an IC50 of 1700 nM. Against the preceding compound, the IC50 is about 850-fold higher.

As to `C[C@@H]1CCCCCCCNc2cc(cc(C(=O)N(C)C)c2)C(=O)N[C@H]([C@H](O)CNC2(c3cccc(C(C)(C)C)c3)CC2)C1` [BACE_68], it took 1.5 nM to reach half-maximal inhibition (IC50).

Turning to `CC(C)c1cccc(C(C)(C)NC[C@@H](O)[C@@H]2Cc3cc(F)c(N)c(c3)CCCCNc3cccc(c3)C(=O)N2)c1` [BACE_116], inhibition was half-maximal at 120 nM (IC50).

Turning to `CCCCNC(=O)[C@H](C)C[C@H](O)[C@@H]1C[C@H](C)CCCCCCC[C@H](NC(=O)c2ccncc2)C(=O)N[C@@H](C)C(=O)N1` [BACE_150], 0.5 nM corresponded to half-maximal inhibition (IC50).

As to `COCc1cc2cc(c1)C(=O)N[C@H]([C@H](O)CNCc1cc(CC(C)(C)C)on1)Cc1cccc(c1)OCCCCN2` [BACE_129], the IC50 was 14 nM.

For `Cc1cc2cc(n1)OCCCCc1cc(cc(Cl)c1O)C[C@@H]([C@H](O)CNC(C)(C)c1cccc(C(C)C)c1)NC2=O` [BACE_107], the IC50 worked out at 47 nM.

As to `COCc1cc2cc(c1)C(=O)N[C@H]([C@H](O)CNCc1cccc(C(C)C)c1)C[C@H](C)CCCCCCCN2` [BACE_9], the IC50 turned out to be 93 nM.

On to `CC(=O)N1CCCCOc2cccc(c2)C[C@@H]([C@H](O)CNCc2cc(C(C)C)ccn2)NC(=O)c2cc(C)nc1c2` [BACE_101], for which inhibition was half-maximal at 5500 nM (IC50).

In turn, `CC(C)c1cccc(CNC[C@@H](O)[C@@H]2Cc3cccc(c3)OCCCCCC(=O)N(C)[C@@H](C)C(=O)N2)c1` [BACE_11] registered an IC50 of 32 nM.

Regarding `CC(C)c1cccc(C(C)(C)NC[C@@H](O)[C@@H]2Cc3cccc(c3)CCCCNc3cccc(c3)C(=O)N2)c1` [BACE_115], half-maximal inhibition (IC50) was put at 290 nM.

Regarding `Cc1cc2cc(n1)OCCCCOc1cccc(c1)C[C@@H]([C@H](O)CNC(C)(C)c1cc(C(C)(C)C)sn1)NC2=O` [BACE_110], half-maximal inhibition (IC50) required 120 nM. Compared with the last compound, the IC50 is about 2.4-fold lower.

`C[C@@H]1CS(=O)(=O)CCCCOc2cccc(c2)C[C@@H]([C@H](O)CNC2(c3cccc(Br)c3)CC2)NC1=O` [BACE_95] gave an IC50 of 68 nM.

`C[C@@H]1CCCCCCCNc2cccc(c2)C(=O)N[C@H]([C@H](O)CNC(C)(C)c2cc(CC(C)(C)C)on2)C1` [BACE_57]: the IC50 is 23 nM.

Turning to `CC(C)(NC[C@@H](O)[C@@H]1Cc2cccc(c2)CCCCNc2cc(c[n+](Cc3ccccc3)c2)C(=O)N1)c1cccc(Br)c1` [BACE_121], the IC50 was 3600 nM.

Take `CC(=O)c1cc2cc(c1)C(=O)N[C@H]([C@H](O)CNC1(c3cccc(C(C)C)c3)CC1)Cc1cccc(c1)OCCCCN2` [BACE_14]: the IC50 was 9 nM.

`CCCc1cc(CNC[C@@H](O)[C@@H]2C[C@H](C)CCCCCCCNc3cc(COC)cc(c3)C(=O)N2)no1` [BACE_64] yielded an IC50 of 570 nM.

Compound `CCOc1ccc(C(F)(F)F)c(CNC[C@@H](O)[C@@H]2C[C@H](C)CCOCCCCNc3cccc(c3)C(=O)N2)c1` [BACE_72] registered an IC50 of 8900 nM.

`CC(C)c1cccc(CNC[C@@H](O)[C@@H]2Cc3cccc(c3)CCCCOc3cc(cc(-c4ncco4)c3)C(=O)N2)c1` [BACE_132] returned an IC50 of 250 nM. Against the preceding compound, the IC50 is about 36-fold lower.

In turn, `C[C@@H]1CCCCCCCCC(=O)N(C)[C@@H](C)C(=O)N[C@H]([C@H](O)CN[C@@H](C)c2cccc(Br)c2)C1` [BACE_22] had an IC50 of 55 nM. This IC50 is about 4.5-fold lower than that of the compound before.

As to `C[C@@H]1CCCCCCCOc2cc(cc(-c3ncco3)c2)C(=O)N[C@H]([C@H](O)CNC2(c3cc(C(C)(C)C)ccn3)CC2)C1` [BACE_81], the IC50 amounted to 8.5 nM.

Turning to `C[C@@H]1CC/C=C/CCCNc2cc(CO)cc(c2)C(=O)N[C@H]([C@H](O)CNCc2cc(CC(C)(C)C)on2)C1` [BACE_67], the IC50 was found to be 210 nM.

`CC(C)c1cccc(CNC[C@@H](O)[C@@H]2Cc3cccc(c3)CCCCOc3cncc(c3)C(=O)N2)c1` [BACE_137]: half-maximal inhibition (IC50) required 480 nM.

`CC(C)c1cccc(CNC[C@@H](O)[C@@H]2C[C@H](C)CCCCC[C@H](C)CCC(=O)N(C)[C@@H](C)C(=O)N2)c1` [BACE_33] came in with an IC50 of 19 nM.

The compound `C[C@@H]1CCCCCCOCC(=O)N(C)[C@@H](C)C(=O)N[C@H]([C@H](O)CNCc2cncc(Br)c2)C1` [BACE_35] registered an IC50 of 510 nM.

Take `CCCCNC(=O)[C@H](C)C[C@H](O)[C@@H]1Cc2ccc(O)c(c2)Cc2ccccc2OCC(=O)N[C@@H](C)C(=O)N1` [BACE_157]: 120 nM corresponded to half-maximal inhibition (IC50). This IC50 is about 4.2-fold lower than that of the compound before.

Compound `COc1cc2cc(n1)NCCCCc1cccc(c1)C[C@@H]([C@H](O)CNCc1cccc(C(C)C)c1)NC2=O` [BACE_12] registered an IC50 of 7.8 nM.

On to `CC(C)c1cccc(CNC[C@@H](O)[C@@H]2C[C@H](C)CCOCCCCNc3cc(cc(Cl)n3)C(=O)N2)c1` [BACE_8], for which 31 nM corresponded to half-maximal inhibition (IC50).

`CC(C)(NC[C@@H](O)[C@@H]1Cc2cccc(c2)CCCCNc2cncc(c2)C(=O)N1)c1cccc(Br)c1` [BACE_120] yielded an IC50 of 590 nM. Compared with the last compound, the IC50 is about 19-fold higher.

`CCCNc1cc(COC)cc(C(=O)N[C@@H](Cc2cccc(OC)c2)[C@H](O)CNC2(c3cccc(C(C)C)c3)CC2)c1` [BACE_145] yielded an IC50 of 1200 nM.

For the compound `Cc1cc2cc(n1)OCCCCc1cc(cc(Cl)c1O)C[C@@H]([C@H](O)CNC(C)(C)c1cc(CC(C)(C)C)on1)NC2=O` [BACE_108], half-maximal inhibition (IC50) was put at 16 nM.

Compound `CCCCNC(=O)[C@H](C)C[C@H](O)[C@@H]1C[C@H](C)CCCCCCCCS(=O)(=O)C[C@@H](C)C(=O)N1` [BACE_151] registered an IC50 of 560 nM.

Compound `CC(C)c1cccc(C(C)(C)NC[C@@H](O)[C@@H]2C[C@H](C)CCCCCCCNc3cccc(n3)C(=O)N2)c1` [BACE_70] showed an IC50 of 2900 nM.

In turn, `CC(C)c1cccc(C(C)(C)NC[C@@H](O)[C@@H]2Cc3cccc(c3)OCCCCNc3cncc(c3)C(=O)N2)c1` [BACE_114] had an IC50 of 57 nM.

`C[C@@H]1CCCCCCCCC(=O)N(C)[C@@H](C)C(=O)N[C@H]([C@H](O)CNCc2cc(CC(C)(C)C)on2)C1` [BACE_29] had a half-maximal inhibitory concentration (IC50) of 3.5 nM.

The compound `CC(C)c1ccnc(C2(NC[C@@H](O)[C@@H]3Cc4cccc(c4)CCCCNc4cc(cc(Cl)n4)C(=O)N3)CC2)c1` [BACE_98] registered an IC50 of 0.5 nM.

In turn, `C[C@@H]1CCCCCCCCC(=O)N(C)[C@@H](C)C(=O)N[C@H]([C@H](O)CNC(C)(C)c2nnc(CC(C)(C)C)s2)C1` [BACE_31] showed an IC50 of 240 nM. This IC50 lies about 480-fold higher than the previous one.

On to `CCCCNC(=O)[C@H](C)C[C@H](O)[C@@H]1Cc2cccc(c2)OCCCCCC(=O)N[C@@H](C)C(=O)N1` [BACE_153], for which inhibition was half-maximal at 690 nM (IC50).

As to `COc1ccc2cc1OCCCCNc1cc(CO)cc(c1)C(=O)N[C@H]([C@H](O)CNCc1cccc(C(C)C)c1)C2` [BACE_130], the IC50 came out at 960 nM.

With `CCCCNC(=O)[C@H](C)C[C@H](O)[C@@H]1Cc2cccc(c2)OCCCCS(=O)(=O)C[C@@H](C)C(=O)N1` [BACE_156], the IC50 stood at 110 nM.

The compound `CC(C)c1cccc(CNC[C@@H](O)[C@@H]2C[C@H](C)CCCCCCCOc3cc(cc(-c4ncco4)c3)C(=O)N2)c1` [BACE_80] showed an IC50 of 68 nM.

Compound `CCCCNC(=O)[C@H](C)C[C@H](O)[C@@H]1C[C@H](C)CCc2cccc(c2)CS(=O)(=O)C[C@@H](C)C(=O)N1` [BACE_19] registered an IC50 of 260 nM.

The record behind these values is BindingDB's records for doi:10.7270/Q2N301S8 (D3R/Abbott, 2020).
